Entries after “also recorded” stand apart in the source; their conditions may differ.

Common to all, as to format: cell-based, Human
In assay [1] the test system is kinase-addicted cancer cell lines. Briefly: RTK ligand matrix screen, Syto 60 cell viability. Here is the method:
(§1) Cell viability was assessed using the nucleic acid stain Syto 60 (Invitrogen). Cells (3000-5000 per well) were seeded into 96 well plates and allowed to adhere overnight. The next day, cells were treated with (or without) 50 ng/mL RTK ligand and concomitantly exposed to an increasing concentration range of the relevant kinase inhibitor. Following 72 hours drug exposure, cells were fixed in 4% formaldehyde, stained with Syto 60 and cell number was assessed using an Odyssey scanner (Li-Cor). Cell viability was calculated by dividing the fluorescence obtained from the drug-treated cells by the fluorescence obtained from the control (no drug) treated cells.
Cell lines. Human cancer cell lines were obtained and tested for sensitivity using an automated platform as previously described (Johannessen, C. M. et al. COT drives resistance to RAF inhibition through MAP kinase pathway reactivation. Nature 468, 968-972, doi:10.1038/nature09627 (2010)). Cell lines were maintained at 37° C. in a humidified atmosphere at 5% CO2 and grown in RPMI 1640 or DMEM/F12 growth media (GIBCO) supplemented with 10% fetal bovine serum (GIBCO), 50 units/mL penicillin and 50 μg/mL streptomycin (GIBCO).
Using 41 different human tumor-derived cell lines with previously defined kinase dependency^7-9, we undertook a “matrix analysis” to examine the effects of 6 different RTK ligands (HGF, EGF, FGF, PDGF, NRG1, IGF)—known to be widely expressed in cancer cells and tumor stroma^10—on drug response. Specifically, we quantified the effect of exposing these cancer cell lines (e.g., AU565 (HER2 amp)) to each ligand on the IC50 for a kinase inhibitor (e.g., lapatinib) that otherwise potently suppresses their growth within 72 hours (FIG. 1A). Nearly all of the kinase-dependent cancer cell lines tested, which included cells derived from multiple tissue types and with distinct kinase dependencies (EGFR, HER2, BRAF, MET, ALK, PDGFR, and FGFR), could be rescued from drug-induced growth inhibition by one or more RTK ligands, highlighting the potentially broad contribution of these ligands to the response to selective kinase inhibitors in kinase-addicted tumor cells (FIG. 1B).

Assay [2] relates to H2228 EML4-ALK translocated NSCLC cells. Put plainly: Syto 60 viability and long-term staining with TAE684 and HGF. On the procedure:
(§2) Cells were co-treated with 50 ng/mL HGF. Error bars represent mean+/−s.e.m. […] FIG. 8C, Syto 60 staining of H2228 EML4-ALK translocated NSCLC cells treated with TAE684 (2 μM) in the presence and absence of HGF (50 ng/mL) as indicated. Cells were treated every 3 days for 9 days. FIG. 8D, Syto 60 staining of H358 EGF-like ligand-driven NSCLC cells treated with Erlotinib (5 μM) in the presence and absence of HGF (50 ng/mL) as indicated. Cells were treated every 3 days for 9 days.
FIG. 16: Syto 60 staining of H2228 EML4-ALK translocated NSCLC cells treated with TAE684 (2 μM) in the presence or absence of HGF (50 ng/mL) as indicated. Cells were treated every 3 days for 9 days.
as §1

Assay [3] relates to AU565 HER2 amplified breast cancer cells. Briefly: Syto 60 viability and long-term staining with lapatinib and ligands. On the procedure: FIGS. 3A-3G: HGF promoted lapatinib resistance in HER2 amplified cell lines. […] HGF rescue is indicated, black squares indicates partial rescue as determined by the initial screen (FIG. 1B). […] Cells were treated every three days for the indicated times. […] FIG. 3D, Immunoblots showing the re-activation of pAKT and pERK in two MET positive (AU565, HCC1954) and one MET negative (BT474) HER2 amplified cell lines. […] FIG. 3E, Representative slides showing MET expression in HER2 positive (3+) breast cancer tissues. FIG. 3F, selection of higher MET expressing AU565 cells following 3× treatments with lapatinib (1 μM) and HGF (50 ng/mL). FIG. 3G. […] Cells were treated twice weekly for the indicated times.
AU565 sells were co-treated with lapatinib (1 μM) in combination with 10 ng/mL NRG1 or FGF. […] Cells were treated with the appropriate kinase inhibitors in the presence of HGF (50 ng/mL). Cells were then treated with either 100 nM PI3K inhibitor (BEZ235) or MAPK inhibitor (AZD6244). Error bars represent mean+/−s.e.m.
as §1

Another assay relates to SK-MEL-28 cells. Put plainly: Secreted factor screen, Cell Titer Glo. The settings on record: 5 μM PLX[…], 50 ng/mL factor, 72 h, 446 factors. Here is the method:
[…] […] […] Error bars represent mean+/−s.e.m.
Following 72 h incubation, cell viability was determined using Cell Titer Glo (Promega).

The subject of assay [4] is H358 EGF-like ligand-driven NSCLC cells. Put plainly: Syto 60 long-term staining with erlotinib and HGF. The settings on record: erlotinib 5 μM, HGF 50 ng/mL, every 3 days for 9 days. Here is the method:
as §2

Regarding “HGF: recombinant human RTK ligand (MET ligand) purchased from Peprotech”, the “effect of RTK ligand on conferring drug resistance to kinase inhibitors” value in assay [1] (50 ng/mL RTK ligand, 72 h, 41 cell lines) is “most broadly active ligands”. Besides, the “effect of HGF on response to PLX[…]” value in assay [1] (BRAF mutant PLX[…]-sensitive melanoma and colorectal cell lines) is “significantly attenuated the response”. Besides, the “rescue despite activation of receptor and a downstream survival effector” value in assay [1] (H2228 and H358 cells with HGF, COLO-201 cells with NRG1) is recorded as “not sufficient to rescue cells from kinase inhibition”. The “effect of HGF on longer-term TAE684 treatment” value in assay [2] (TAE684 2 μM, HGF 50 ng/mL, every 3 days for 9 days) is recorded as “rescued; also recorded: prevented acquired resistance to TAE684”. Further, the “rescue from ALK inhibition by HGF at 72 hour time-point” value in assay [2] (TAE684, HGF, 72 h) was “not rescued from ALK inhibition”. In assay [3] (9-day lapatinib and HGF co-treatment), the “MET expression of cell population after co-treatment” value was “increased MET expression”. Moreover, in assay [3] (12 days, lapatinib 1 μM, HGF 50 ng/mL), the “resistance to lapatinib on longer-term co-treatment” value is recorded as “rapidly promoted resistance to lapatinib”. For the same substance, the “effect of secreted factor on PLX[…] sensitivity” value in the assay on SK-MEL-28 cells was “could attenuate PLX4032 sensitivity”. Besides, the “effect of HGF on longer-term erlotinib treatment” value in assay [4] was “rescued”.

The record behind these values is patent US20150125452A1, “COMBINATION TREATMENTS COMPRISING C-MET ANTAGONISTS AND B-RAF ANTAGONISTS” (GENENTECH, INC., priority 2011, published 2015).
